# Test results published in ChEMBL document CHEMBL5241110, “Medicines for millions of patients” (RSC Med Chem, 2022).
# Legend:
# Rocuronium = assay: Binding affinity to rocuronium by ITC method
# Pancuronium = assay: Binding affinity to pancuronium
Ka (Rocuronium),SMILES,Ka (Pancuronium) [M⁻¹]
1.05 10^7 M^-1,O=C(O)CCSC[C@H]1O[C@@H]2O[C@H]3[C@H](O)[C@@H](O)[C@@H](O[C@H]4[C@H](O)[C@@H](O)[C@@H](O[C@H]5[C@H](O)[C@@H](O)[C@@H](O[C@H]6[C@H](O)[C@@H](O)[C@@H](O[C@H]7[C@H](O)[C@@H](O)[C@@H](O[C@H]8[C@H](O)[C@@H](O)[C@@H](O[C@H]9[C@H](O)C(O)[C@@H](O[C@H]1[C@H](O)[C@H]2O)O[C@@H]9CSCCC(=O)O)O[C@@H]8CSCCC(=O)O)O[C@@H]7CSCCC(=O)O)O[C@@H]6CSCCC(=O)O)O[C@@H]5CSCCC(=O)O)O[C@@H]4CSCCC(=O)O)O[C@@H]3CSCCC(=O)O (some centres not stated),–
–,CC(=O)O[C@@H]1C[C@H]2CCC3C4C[C@H]([N+]5(C)CCCCC5)[C@H](OC(C)=O)[C@@]4(C)CCC3[C@@]2(C)C[C@@H]1[N+]1(C)CCCCC1 (some centres not stated),167
